{"source": "patent US20140286904A1", "about": "“ANITMICROBIAL PEPTIDE PRODUCED BY INTESTINAL LACTOBACILLUS SALIVARIUS” (AGRICULTURE AND FOOD DEVELOPMENT AUTHORITY (TEAGASC), priority 2011, published 2014)", "key": {"[1]": {"tested_on": "bovine mastitis isolate S. aureus DPC5245", "conditions": "cited from earlier work"}, "[2]": {"tested_on": "S. aureus DPC5246", "conditions": "BHI broth, 37° C., 24 h, OD590"}, "[3]": {"tested_on": "L. monocytogenes NCTC 11994", "conditions": "BHI broth, 37° C., 24 h, OD590"}, "[4]": {"tested_on": "E. coli strains", "conditions": "broth-based MIC50 assay"}, "[5]": {"tested_on": "E. sakazakii strains"}, "[6]": {"tested_on": "L. delbrueckii subsp. bulgaricus", "assay": "antimicrobial activity of purified peptide (well diffusion, FIG. 1)", "type": "cell-based, Lactobacillus delbrueckii subsp. bulgaricus", "procedure": "(§1) The antimicrobial peptide was purified from a 0.5 L overnight culture of L. salivarius DPC6502 grown in MRS-IM-G media. The cells were removed by centrifugation at 8,000×g for 15 min, and the supernatant applied to a column containing 10 ml SP sepharose Fast flow cation-exchange resin (GE Healthcare, UK) previously equilibrated with 50 mM sodium acetate buffer, pH 4.5. The column was washed with 50 mM sodium acetate buffer, pH 4.5 containing 0.3 M NaCl, the bioactive peptide was subsequently eluted from the column using 50 mM sodium acetate buffer, pH 4.5 containing 1.0 M NaCl. The eluate was applied to a 2.0 g (12 ml volume) C18 Bond Elute column (Phenomenex, Cheshire, UK) pre-equilibrated with methanol and water. […] The column was pre-equilibrated with 10% acetonitrile containing 0.1% (vol/vol) TFA, followed by separation and elution of the bioactive peptide by gradient RP-HPLC using 0.1% (vol/vol) TFA and acetonitrile concentrations that ranged from 10% to 30% (vol/vol), from 5 to 45 min at a flow rate of 1.0 ml min^−1 Absorbance was monitored at a wavelength of 214 nm. Antimicrobial peptide activity was monitored throughout the purification procedure by well diffusion assay using the sensitive indicator strain L. delbrueckii subsp. bulgaricus LMG6901. […]"}, "[7]": {"tested_on": "Listeria", "assay": "antimicrobial activity of purified peptide (FIG. 1)", "type": "cell-based", "procedure": "as §1"}, "[8]": {"tested_on": "Staphylococcus aureus", "assay": "antimicrobial activity of purified peptide (FIG. 1)", "type": "cell-based"}, "[9]": {"tested_on": "L. salivarius UCC118", "assay": "inhibition of strains closely related to the producer", "type": "cell-based, Lactobacillus salivarius"}}, "note": "Positions of bridges follow the written chain, without caps; N, C: chain ends. Residues, ends and D or L forms follow the SMILES beside them. No end group written: not given here."}
{"compound": "lacticin 3147", "values": [{"measurement": "MIC50", "setting": "[1]", "value": "7 to 8", "unit": "µM"}]}
{"compound": "CSCC[C@H](NC(=O)CNC(=O)[C@@H](NC(=O)[C@@H]1CCCN1C(=O)[C@H](CCSC)NC(=O)CNC(=O)[C@H](CC(N)=O)NC(=O)[C@H](CC(N)=O)NC(=O)[C@H](Cc1ccc(O)cc1)NC(=O)[C@@H](NC(=O)[C@H](CCCNC(=N)N)NC(=O)[C@H](CS)NC(=O)[C@H](CCCNC(=N)N)NC(=O)[C@H](Cc1c[nH]cn1)NC(=O)[C@H](CCCCN)NC(=O)[C@H](CCCCN)NC(=O)[C@H](CCCNC(=N)N)NC(=O)[C@@H](N)CCCCN)C(C)C)[C@@H](C)O)C(=O)N[C@@H](Cc1ccc(O)cc1)C(=O)N[C@@H](CCCNC(=N)N)C(=O)N[C@@H](Cc1c[nH]c2ccccc12)C(=O)N[C@@H](CS)C(=O)O", "note": "[synthetic Bactofensin LS1] (H-KRKKHRCRVYNNGMPTGMYRWC-OH; N-terminus assumed)", "values": [{"measurement": "MIC50 (concentration sufficient to inhibit growth by 50%)", "setting": "[2]", "value": 5, "unit": "µM"}, {"measurement": "MIC50 (concentration sufficient to inhibit growth by 50%)", "setting": "[3]", "value": 5, "unit": "µM"}, {"measurement": "concentration that did not inhibit (MIC50 assay)", "setting": "[4]", "value": "> 50", "unit": "µM"}, {"measurement": "concentration that did not inhibit (MIC50 assay)", "setting": "[5]", "value": "> 50", "unit": "µM"}]}
{"compound": "Bactofensin LS1: 22 aa cationic class II antimicrobial peptide of SEQ ID NO: 2 purified from L. salivarius DPC6502 (KRKKHRCRVYNNGMPTGMYRWC; disulfide 7-22; listed as Lactobacillus salivarius)", "values": [{"measurement": "antimicrobial activity", "setting": "[6]", "value": "active"}, {"measurement": "antimicrobial activity", "setting": "[7]", "value": "active"}, {"measurement": "antimicrobial activity", "setting": "[8]", "value": "active"}, {"measurement": "inhibition of closely related strains", "setting": "[9]", "value": "inhibits"}]}
